Test results: patent US20260008801A1, “BIO-BASED SURFACTANTS DERIVED FROM CARBOHYDRATES” (COÖPERATIE KONINKLIJKE COSUN U.A., priority 2022, published 2026)
Read-outs that look alike come from different tables or passages of the source.

Experiments:
Type in all cases: physicochemical
[1] = Solubility in water (excess of compound in 4 ml demi water); details: for Solubility: Table E5.2, water; for Solubility (%): Table E8
Protocol: Solubility is preferably solubility in aqueous solution, more preferably solubility in water, most preferably solubility in demineralised water. A skilled person knows how to assess such solubility.
Solubility in water was determined by preparing mixtures of an excess of compound dispersed in 4 ml demi water using a vortex at maximum speed for 1 min. […] 1 ml of the mixture was concentrated in vacuo to yield a solid. The mass of the solid was determined in mg to calculate the solubility in percentage by dividing by ten.

[2] = Foaming abilities, 1% compound solutions shaken by hand; set-up: key to FOAM: −: no foam formation; +: low foam formation; ++: moderate foam formation; +++: strong foam formation
Protocol: Foaming abilities were evaluated at room temperature by shaking 1% compound solutions (2 ml) of pH 3, 7, and 12 by hand for 10 s. The pH of each solution was assessed with a pH meter at room temperature. […] The foam heights at the initial time were compared to one another after which the foaming abilities were classified according to no foam formation (−), low foam formation (+), moderate foam formation (++), and strong foam formation (+++).

[3] = Foaming power and stability, Ultra-Turrax, 0.4% aq. surfactant; details: for Foamability (mL) after (min) 1 / Foamability (mL) after (min) 5 / Foamability (mL) after (min) 10: Table E5.2; for Foamability (mL) after (min) 1: foam volume after 1 min; for Foamability (mL) after (min) 5: foam volume after 5 min; for Foamability (mL) after (min) 10: foam volume after 10 min; for Foamability 1 min / Foamability 5 min / Foamability 30 min: Table E8; for Foamability 1 min: after 1 min; for Foamability 5 min: after 5 min; for Foamability 30 min: after 30 min
Protocol: Foaming power was also tested at room temperature with 5 mL of 0.4% aq. surfactant (20 mg) solution in a 50 mL measuring cylinder. After performing the Ultra-Turrax (a registered trademark for a high-performance dispersing instrument) for 20 seconds (8000 rpm), the initial height of the foam was measured for foam height. (volume in mL). Every time step of, 1, 3, 5, 10, 30, 60 minutes was noted. In addition, after 24 hours the stability was checked. Particularly, foaming power and stability of the surfactants were performed using an IKA Ultra-Turrax T25 with an 18 G dispersing element. At room temperature, an aqueous solution of 5 mL 0.4% surfactant in a 50 mL measuring cylinder (2.20 cm diameter) was mixed with the Ultra-Turrax for 20 seconds at 8000 rpm. The foam height (volume in mL) was denoted for 0, 1, 3, 5, 10, 30, 60 min and 24 hours. In addition, after 24 hours the stability was checked.

[4] = Surface tension measurements, Wilhelmy plate (surface tension, CMC)
Protocol: Surface tension measurements were performed with a Biolin Scientific Sigma701 automatic tension meter equipped with a Wilhelmy plate made of platinum (±0.5 mN/m). […] The number of experimental points is related to the compound's/surfactant's solubility and available quantity. All compound/surfactant solutions were allowed to stand 12 h before being measured. The platinum plate was thoroughly cleaned with demi water and flame-dried before each measurement. The CMC of each compound/surfactant was determined at the minimum of a breakpoint of a conventional plot of surface tension versus compound/surfactant concentration. DCMC was obtained by acquiring the surface tension at the CMC. The pC20 value was determined by taking the minus log of the concentration compound/surfactant at a surface tension of 52 mN/m.

[5] = Table E5, room temperature, pH 7
[6] = Table E6, N-oxide compounds, in Salt form

Structure (SMILES) | SOLUBILITY (H2O) ([1]; Table E5) | Solubility [1] | Foamability (mL) after (min) 1 [3] | Foamability (mL) after (min) 5 [3] | Foamability (mL) after (min) 10 [3] | CMC (%) ([4]; Table E5) | SURFACE TENSION [4, 5] | Surface tension (nM/m) ([4]; Table E5.2) | SOLUBILITY (H2O) [1, 6] | Solubility (%) [1] | FOAM ([2]; Table E6, in Salt form) | Foamability 1 min [3] | Foamability 5 min [3] | Foamability 30 min [3] | CMC (%) ([4]; Table E6, in Salt form) | SURFACE TENSION ([4]; Table E6, in Salt form) | CMC (%) ([4]; Table E8) | Surface tension (nM/m) ([4]; Table E8) | further results
CCCCCCN(C)C[C@H](O)[C@@H](O)[C@@H](O)[C@H](O)C(=O)O [Compound 30, N-methyl-N-hexyl-D-galacturonic acid amine] | 40% | 40% | 0.2 mL | 0 mL | 0 mL | 2% | 60.6 mN/m | 42.1 mN/m |  |  |  |  |  |  |  |  |  |  | FOAM ([2]; Table E5, PH > 7): ++
CCCCCCCCCCCCN(C)C[C@H](O)[C@@H](O)[C@@H](O)[C@H](O)C(=O)O [Compound 32, N-methyl-N-dodecyl-D-galacturonic acid amine] | 1% | 1% | 4.5 mL | 5 mL | 3 mL | 0.1% | 33.9 mN/m | 33.9 mN/m |  |  |  |  |  |  |  |  |  |  | solubility in H2O [1]: 1%; FOAM ([2]; Table E5, pH not given): +++; stability in foam ([2]; whole pH range): enormous stability; SURFACE TENSION [4]: 33.9 mN/m; CMC (%) ([4]; Table E5.2): 0.1%; critical micelle concentration (CMC) ([4]; running text b302): 0.01%
CCCCCC[N+](C)([O-])C[C@H](O)[C@@H](O)[C@@H](O)CO (stereo partly drawn) [Compound 38, N-methylhexyl-L-arabinonamine oxide] |  |  |  |  |  |  |  |  | 19% | 19% | − | 0.5 mL | 0 mL | 0 mL | 1.60% | 49.275 mN/m | 1.30% | 53.59 mN/m | 
CCCCCCCC[N+](C)([O-])C[C@H](O)[C@@H](O)[C@@H](O)CO (stereo partly drawn) [Compound 39, N-methyloctyl-L-arabinonamine oxide] |  |  |  |  |  |  |  |  | 11% | 11% | ++ | 2 mL | 2 mL | 0.5 mL | 0.55% | 27.734 mN/m | 0.55% | 27.73 mN/m | 
CCCCCC[N+](C)([O-])C[C@H](O)[C@@H](O)[C@@H](O)[C@H](O)C(=O)O (stereo partly drawn) [Compound 41, N-methyl-N-hexyl-D-galacturonic acid amine oxide] |  |  |  |  |  |  |  |  | 17% | 17% | − | 0.5 mL | 0 mL | 0 mL | 2.58% | 37.727 mN/m | 2.60% | 42.90 mN/m | 
CCCCCCCC[N+](C)([O-])C[C@H](O)[C@@H](O)[C@@H](O)[C@H](O)C(=O)O (stereo partly drawn) [Compound 42, N-methyl-N-octyl-D-galacturonic acid amine oxide] |  |  |  |  |  |  |  |  | 10% | 10% | +++ | 6 mL | 6 mL | 2 mL | 0.65% | 42.89 mN/m | 0.65% | 42.89 mN/m | 
